Experiments:
bedstraw = experiment: Test B pre/postemergence bedstraw; assay type: in vivo, Galium aparine
Summary of the method: (§1)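 Herbicidal effect was estimated by eye on a ten-point control scale after plants spent twelve to sixteen days in a greenhouse following soil or foliar treatment. Foliar sprays targeted plants at one to four leaves; all doses were formulated in a non-phytotoxic solvent with surfactant.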

pigweed = experiment: Test B pre/postemergence pigweed; assay type: in vivo, Amaranthus retroflexus
Summary of the method: as §1

surinam grass = experiment: Test B pre/postemergence surinam grass; assay type: in vivo, Brachiaria decumbens
Summary of the method: as §1

purple nutsedge = experiment: Test B pre/postemergence purple nutsedge; assay type: in vivo, Cyperus rotundus
Summary of the method: as §1

blackgrass = experiment: Test B pre/postemergence blackgrass; assay type: in vivo, Alopecurus myosuroides
Summary of the method: as §1

corn = experiment: Test B pre/postemergence corn; assay type: in vivo, Zea mays
Summary of the method: as §1

crabgrass = experiment: Test B pre/postemergence crabgrass; assay type: in vivo, Digitaria sanguinalis
Summary of the method: as §1

velvetleaf = experiment: Test B pre/postemergence velvetleaf; assay type: in vivo, Abutilon theophrasti
Summary of the method: as §1

smallflower flatsedge = experiment: Test B flood test smallflower flatsedge; assay type: in vivo, Cyperus difformis
Summary of the method: (§2)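 Flood test on plants grown to the 2-leaf stage; treated plants kept in greenhouse twelve to sixteen days, then visually rated against controls on a 0 (no effect) to 10 (complete control) scale.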

soybean = experiment: Test B pre/postemergence soybean; assay type: in vivo, Glycine max
Summary of the method: as §1

wild oat = experiment: Test B pre/postemergence wild oat; assay type: in vivo, Avena fatua
Summary of the method: as §1

bamyardgrass = experiment: Test B flood test barnyardgrass; assay type: in vivo, Echinochloa crus-galli
Summary of the method: as §2

sugar beet = experiment: Test B pre/postemergence sugar beet; assay type: in vivo, Beta vulgaris
Summary of the method: as §1

rice = experiment: Test B flood test rice; assay type: in vivo, Oryza sativa
Summary of the method: as §2

cocklebur = experiment: Test B pre/postemergence cocklebur; assay type: in vivo, Xanthium strumarium
Summary of the method: as §1

giant foxtail = experiment: Test B pre/postemergence giant foxtail; assay type: in vivo, Setaria faberii
Summary of the method: as §1

[1] = Postemergence, Rate 250 g/ha, scale of 0 to 10, 0 is no effect, 10 is complete control
[2] = Postemergence, Rate 500 g/ha, scale of 0 to 10 where 0 is no effect and 10 is complete control
[3] = Preemergence, Rate 62 g/ha, scale 0 to 10 (0 no effect, 10 complete control)
[4] = Preemergence, Rate 125 g/ha, scale of 0 to 10 where 0 is no effect and 10 is complete control
[5] = Preemergence, Rate 500 g/ha, scale of 0 to 10 where 0 is no effect and 10 is complete control
[6] = Postemergence, Rate 62 g/ha, scale 0 to 10, 0 is no effect, 10 is complete control
[7] = Postemergence, Rate 125 g/ha, scale of 0 to 10 where 0 is no effect and 10 is complete control
[8] = Rate 62 g/ha, flood test species, Pre-emergence, visual evaluation after twelve to sixteen days
[9] = Rate 125 g/ha, under heading Pre-emergence, flood test species, visual evaluation after twelve to sixteen days
[10] = Rate 250 g/ha, Pre-emergence (flood test species), scale 0 to 10, 0 is no effect, 10 is complete control
[11] = Rate 500 g/ha, Pre-emergence section of Table B, 0 to 10 scale (0 no effect, 10 complete control)

Question: Which results are given for `CCC(C)n1c(=O)on(C(=O)N(c2ccccc2)C(C)C)c1=O` (stereo not drawn) [Compound 611]?
Answer: Bedstraw plant response rating (bedstraw; [1]): 6; Plant response rating, Bedstraw (bedstraw; [2]): 9; Bedstraw plant response rating (bedstraw; [3]): 1; Bedstraw plant response rating (bedstraw; [4]): 1; Bedstraw plant response rating (bedstraw; [5]): 10; Plant response rating, Redroot pigweed (pigweed; [6]): 0; Plant response rating, Redroot pigweed (pigweed; [7]): 2; Redroot pigweed plant response rating (pigweed; [1]): 3; Plant response rating, Redroot pigweed (pigweed; [2]): 8; Redroot pigweed plant response rating (pigweed; [3]): 6; Redroot pigweed plant response rating (pigweed; [4]): 8; Plant response rating, Redroot pigweed (pigweed; [5]): 10; Plant response rating, B. signalgrass (surinam grass; [6]): 0; Plant response rating, B. signalgrass (surinam grass; [7]): 3; B. signalgrass plant response rating (surinam grass; [1]): 7; Plant response rating, B. signalgrass (surinam grass; [2]): 8; B. signalgrass plant response rating (surinam grass; [3]): 7; B. signalgrass plant response rating (surinam grass; [4]): 7; B. signalgrass plant response rating (0 to 10 scale, 0 is no effect, 10 is complete control) (surinam grass; Preemergence, Rate 250 g/ha): 10; B. signalgrass plant response rating (surinam grass; [5]): 10; Plant response rating, Nutsedge (purple nutsedge; [6]): 0; Plant response rating, Nutsedge (purple nutsedge; [7]): 0; Nutsedge plant response rating (purple nutsedge; [1]): 3; Plant response rating, Nutsedge (purple nutsedge; [2]): 3; Nutsedge plant response rating (purple nutsedge; [3]): 0; Nutsedge plant response rating (purple nutsedge; [4]): 0; Plant response rating, Nutsedge (purple nutsedge; [5]): 2; Plant response rating, Blackgrass (blackgrass; [6]): 7; Plant response rating, Blackgrass (blackgrass; [7]): 9; Blackgrass plant response rating (blackgrass; [1]): 9; Plant response rating, Blackgrass (blackgrass; [2]): 9; Blackgrass plant response rating (blackgrass; [3]): 9; Blackgrass plant response rating (blackgrass; [4]): 9; Blackgrass plant response rating (0 to 10 scale) (blackgrass; Preemergence, Rate 250 g/ha): 10; Blackgrass plant response rating (blackgrass; [5]): 10; Plant response rating, Corn (corn; [6]): 0; Plant response rating, Corn (corn; [7]): 0; Corn plant response rating (corn; [1]): 4; Plant response rating, Corn (corn; [2]): 6; Corn plant response rating (corn; [3]): 2; Corn plant response rating (corn; [4]): 3; Corn plant response rating (0 to 10 scale) (corn; Preemergence, Rate 250 g/ha): 9; Plant response rating, Corn (corn; [5]): 9; Plant response rating, Crabgrass (crabgrass; [6]): 8; Plant response rating, Crabgrass (crabgrass; [7]): 8; Crabgrass plant response rating (crabgrass; [1]): 9; Plant response rating, Crabgrass (crabgrass; [2]): 9; Crabgrass plant response rating (crabgrass; [3]): 9; Crabgrass plant response rating (crabgrass; [4]): 10; Plant response rating, Crabgrass (crabgrass; [5]): 10; Plant response rating, Velvetleaf (velvetleaf; [6]): 0; Plant response rating, Velvetleaf (velvetleaf; [7]): 3; Velvetleaf plant response rating (velvetleaf; [1]): 5; Plant response rating, Velvetleaf (velvetleaf; [2]): 5; Velvetleaf plant response rating (velvetleaf; [3]): 6; Velvetleaf plant response rating (velvetleaf; [4]): 6; Plant response rating, Velvetleaf (velvetleaf; [5]): 8; Plant response rating, S. Flatsedge (0 to 10 scale, 0 is no effect, 10 is complete control) (smallflower flatsedge; [8]): 0; S. Flatsedge plant response rating (0 to 10 scale, 0 is no effect, 10 is complete control) (smallflower flatsedge; [9]): 0; S. Flatsedge plant response rating (smallflower flatsedge; [10]): 0; S. Flatsedge plant response rating (smallflower flatsedge; [11]): 0; Plant response rating, Soybean (soybean; [6]): 5; Plant response rating, Soybean (soybean; [7]): 7; Soybean plant response rating (soybean; [1]): 8; Plant response rating, Soybean (soybean; [2]): 8; Soybean plant response rating (soybean; [3]): 2; Soybean plant response rating (soybean; [4]): 2; Plant response rating, Soybean (soybean; [5]): 7; Plant response rating, Wild oats (wild oat; [6]): 0; Plant response rating, Wild oats (wild oat; [7]): 2; Wild oats plant response rating (wild oat; [1]): 4; Plant response rating, Wild oats (wild oat; [2]): 7; Wild oats plant response rating (wild oat; [3]): 5; Wild oats plant response rating (wild oat; [4]): 7; Plant response rating, Wild oats (wild oat; [5]): 8; Plant response rating, Barnyardgrass (0 to 10 scale, 0 is no effect, 10 is complete control) (bamyardgrass; [8]): 0; Barnyardgrass plant response rating (0 to 10 scale, 0 is no effect, 10 is complete control) (bamyardgrass; [9]): 0; Barnyardgrass plant response rating (bamyardgrass; [10]): 0; Barnyardgrass plant response rating (bamyardgrass; [11]): 5; Plant response rating, Sugarbeets (sugar beet; [6]): 0; Plant response rating, Sugarbeets (sugar beet; [7]): 0; Sugarbeets plant response rating (sugar beet; [1]): 0; Plant response rating, Sugarbeets (sugar beet; [2]): 2; Sugarbeets plant response rating (sugar beet; [3]): 2; Sugarbeets plant response rating (sugar beet; [4]): 2; Plant response rating, Sugarbeets (sugar beet; [5]): 6; Plant response rating, Rice (0 to 10 scale, 0 is no effect, 10 is complete control) (rice; [8]): 0; Rice plant response rating (0 to 10 scale, 0 is no effect, 10 is complete control) (rice; [9]): 0; Rice plant response rating (rice; [10]): 0; Rice plant response rating (rice; [11]): 2; Plant response rating, Cocklebur (cocklebur; [6]): 0; Plant response rating, Cocklebur (cocklebur; [7]): 2; Cocklebur plant response rating (cocklebur; [1]): 2; Plant response rating, Cocklebur (cocklebur; [2]): 3; Cocklebur plant response rating (cocklebur; [3]): 0; Cocklebur plant response rating (cocklebur; [4]): 0; Cocklebur plant response rating (0 to 10 scale) (cocklebur; Preemergence, Rate 250 g/ha): 0; Plant response rating, Cocklebur (cocklebur; [5]): 1; Plant response rating, Giant foxtail (giant foxtail; [6]): 8; Plant response rating, Giant foxtail (giant foxtail; [7]): 8; Giant foxtail plant response rating (giant foxtail; [1]): 9; Plant response rating, Giant foxtail (giant foxtail; [2]): 9; Giant foxtail plant response rating (giant foxtail; [3]): 10; Giant foxtail plant response rating (giant foxtail; [4]): 10; Plant response rating, Giant foxtail (giant foxtail; [5]): 10

From patent US6737383B1, “Herbicidal oxadiazolidines” (priority 1999, dated 2004)
